Data as given in US6461997B1, “Triazole sulfones having herbicidal activity” (Monsanto Technology LLC, priority 1999, dated 2002).

Experiments:
AVEFA (wild oat) = experiment: Pre-emergence herbicidal activity, cool season; format: in vivo, Avena fatua; settings: GR80 = lowest tested rate (300, 100, 30, 10 g/ha) with 80% or greater inhibition; approx. 14 days after treating; 18/13° C.
Procedure: (§1) Tables 5 to 8 summarize results of tests conducted as described below to determine the pre-emergence herbicidal activity, in the form of a GR80 value, of illustrative compounds of this invention. […] Compounds of the invention were typically applied at rates of 300, 100, 30, and 10 g/ha. Where herbicidal activity was evident but 80% inhibition was not achieved at the highest rate tested, an asterisk (*) is shown in the following tables.
(§2) The pre-emergence tests were conducted by the following procedure. Topsoil was sieved to pass through a 1.27 cm screen. Fertilizer was added to the topsoil and the mixture was then sterilized by heating. The topsoil mixture was placed in a pot and compacted to a depth of 1.0 to 1.25 cm from the top of the pot. Seeds of each of several monocotyledonous and dicotyledonous annual plant species were placed on top of the soil. Additional soil was subsequently placed over the seeds to level-fill the pot. A known amount of each test compound dissolved or suspended in an appropriate organic solvent was diluted with a 50:50 mix of acetone and water and applied to the surface of the soil. After treatment the plants were placed in a greenhouse where they received 0.64 cm of overhead irrigation. All subsequent watering consisted of a light overhead mist and/or subirrigation as needed for germination and growth. Tables 5 and 6 below relate to warm season plant species which were placed after pre-emergence treatment in a greenhouse with a 30/21° C. day/night temperature regime. Tables 7 and 8 below relates to cool season plant species placed after pre-emergence treatment in a greenhouse or growth chamber with an 18/13° C. day/night temperature regime.
(§3) Approximately 14 days after planting and treating, the plants were observed and herbicidal efficacy recorded as percent inhibition by comparison with untreated plants.
(§4) The plant species usually regarded as weeds which were utilized in the tests are identified in the tables below according to the following legend, in which “d” indicates a dicotyledonous species and “m” a monocotyledonous species. All monocotyledonous species included in the tests herein are grasses.

POLCO (wild buckwheat) = experiment: Pre-emergence herbicidal activity, cool season; format: in vivo, Polygonum convolvulus; settings: lowest tested rate with 80% or greater inhibition; rates 300, 100, 30, 10 g/ha; about 14 days
How it was run: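 GR80 values, pre-emergence, soil applied at 300, 100, 30, 10 g/ha. Warm regime 30/21 °C: PANMI, DIGSA. Cool regime 18/13 °C: ALOMY, POLCO. Rating ~14 d, % inhibition vs untreated.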

STEME (common chickweed) = experiment: Pre-emergence herbicidal activity, cool season; format: in vivo, Stellaria media; settings: lowest tested rate with 80% or greater inhibition; rates 300, 100, 30, 10 g/ha; about 14 days
How it was run: (§5)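 GR80 values derive from percent inhibition relative to untreated plants, read roughly 14 days after sowing and pre-emergence soil-surface treatment (compound in 50:50 acetone/water; rates typically 10, 30, 100, 300 g/ha). Warm-season weeds grew at 30/21° C day/night, cool-season ones at 18/13° C; an asterisk marks activity without reaching 80% at the highest rate.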

SASKR (russian thistle) = experiment: Pre-emergence herbicidal activity, cool season; format: in vivo, Salsola kali; settings: lowest tested rate with 80% or greater inhibition; rates 300, 100, 30, 10 g/ha; about 14 days
How it was run: as §5

[1] = test system: LAMPU (purple deadnettle); experiment: Pre-emergence herbicidal activity, cool season; format: in vivo, Lamium purpureum; settings: lowest tested rate with 80% or greater inhibition; rates 300, 100, 30, 10 g/ha; about 14 days
How it was run: as §5

[2] = test system: AGSST (creeping bentgrass); experiment: Pre-emergence herbicidal activity, cool season; format: in vivo, Agrostis stolonifera; settings: GR80 = lowest tested rate (300, 100, 30, 10 g/ha) with 80% or greater inhibition; approx. 14 days after treating; 18/13° C.
How it was run: as §5

SETVI (green foxtail) = experiment: Pre-emergence herbicidal activity, cool season; format: in vivo, Setaria viridis; settings: GR80 = lowest tested rate (300, 100, 30, 10 g/ha) with 80% or greater inhibition; approx. 14 days after treating; 18/13° C.
How it was run: as §5

[3] = test system: GALAP (catchweed bedstraw); experiment: Pre-emergence herbicidal activity, cool season; format: in vivo, Galium aparine; settings: lowest tested rate with 80% or greater inhibition; rates 300, 100, 30, 10 g/ha; about 14 days
How it was run: as §5

[4] = test system: VERPE (creeping speedwell); experiment: Pre-emergence herbicidal activity, cool season; format: in vivo, Veronica persicaria; settings: lowest tested rate with 80% or greater inhibition; rates 300, 100, 30, 10 g/ha; about 14 days
How it was run: as §5

SINAR (wild mustard) = experiment: Pre-emergence herbicidal activity, cool season; format: in vivo, Sinapis arvensis; settings: lowest tested rate with 80% or greater inhibition; rates 300, 100, 30, 10 g/ha; about 14 days
How it was run: as §5

[5] = test system: CHEAL (common lambsquarters); experiment: Pre-emergence herbicidal activity, warm season; format: in vivo, Chenopodium album; settings: GR80 = lowest tested rate (300, 100, 30, 10 g/ha) with 80% or greater inhibition; approx. 14 days after treating; 30/21° C.
How it was run: as §5

CONAR (field bindweed) = experiment: Pre-emergence herbicidal activity, warm season; format: in vivo, Convolvulus arvensis; settings: GR80 = lowest tested rate (300, 100, 30, 10 g/ha) with 80% or greater inhibition; approx. 14 days after treating; 30/21° C.
Procedure: as §1, §2, §3, §4

Q: How did the “Pre-emergence activity (GR80) AVEFA” value (AVEFA (wild oat)) turn out when `CN(C)C(=O)n1cnc(S(=O)(=O)C(F)F)n1` [Example 26] was run?
A: Its value is 300 g/ha.

Q: What about the “Pre-emergence activity GR80, POLCO” value (POLCO (wild buckwheat)) of the same molecule?
A: The value was 300 g/ha.

Q: What about the “Pre-emergence activity GR80, STEME” value (STEME (common chickweed)) of the same molecule?
A: The value was “[empty]”.

Q: And the “Pre-emergence activity GR80, SASKR” value (SASKR (russian thistle))?
A: Its value is 300 g/ha.

Q: And the “Pre-emergence activity GR80, LAMPU” value [1]?
A: The value was 300 g/ha.

Q: What about the “Pre-emergence activity (GR80) AGSST” value [2] of the same molecule?
A: Its value is 30 g/ha.

Q: What about the “Pre-emergence activity (GR80) SETVI” value (SETVI (green foxtail)) of the same molecule?
A: Its value is 300 g/ha.

Q: And the “Pre-emergence activity GR80, GALAP” value [3]?
A: Its value is 300 g/ha.

Q: What about the “Pre-emergence activity GR80, VERPE” value [4] of the same molecule?
A: The value was 300 g/ha.

Q: And the “Pre-emergence activity GR80, SINAR” value (SINAR (wild mustard))?
A: The value was “[empty]”.

Q: How did the “Pre-emergence activity GR80, POLCO” value (POLCO (wild buckwheat)) turn out when `CN(Cc1ccccc1)C(=O)n1cnc(S(=O)(=O)C(F)(F)Cl)n1` [Example 92] was run?
A: Its value is “[empty]”.

Q: And the “Pre-emergence activity GR80, STEME” value (STEME (common chickweed))?
A: The value was “[empty]”.

Q: What about the “Pre-emergence activity GR80, SASKR” value (SASKR (russian thistle)) of the same molecule?
A: Its value is “[empty]”.

Q: And the “Pre-emergence activity (GR80) CHEAL” value [5]?
A: The value was 300 g/ha.

Q: And the “Pre-emergence activity (GR80) CONAR” value (CONAR (field bindweed))?
A: Its value is 300 g/ha.

Q: And the “Pre-emergence activity GR80, LAMPU” value [1]?
A: Its value is “[empty]”.

Q: What about the “Pre-emergence activity GR80, GALAP” value [3] of the same molecule?
A: The value was “[empty]”.

Q: What about the “Pre-emergence activity GR80, VERPE” value [4] of the same molecule?
A: The value was “[empty]”.

Q: And the “Pre-emergence activity GR80, SINAR” value (SINAR (wild mustard))?
A: The value was “[empty]”.
